Source: publication PMC6471485, “Selective Inhibitors of a Human Prolyl Hydroxylase (OGFOD1) Involved in Ribosomal Decoding” (Chemistry (Weinheim an Der Bergstrasse, Germany), 2019)

How the values were obtained:
Tpa1p = Tpa1p (Saccharomyces cerevisiae, UniProt P40032); experiment: Tpa1p inhibition assay (Figure S12); assay type: biochemical; conditions: Tpa1p 2 µM (Figure S12)
NO66 = target: T1, NO66 (Homo sapiens, UniProt Q9H6W3); experiment: NO66 IC50 determination, RapidFire MS; assay type: biochemical
T1 construct: 116-641 were cloned into pFB-LIC-Bse; His (N); made in house; host or cells: Sf9 insect cells
T1 sequence (Q9H6W3 116-641 limits assumed): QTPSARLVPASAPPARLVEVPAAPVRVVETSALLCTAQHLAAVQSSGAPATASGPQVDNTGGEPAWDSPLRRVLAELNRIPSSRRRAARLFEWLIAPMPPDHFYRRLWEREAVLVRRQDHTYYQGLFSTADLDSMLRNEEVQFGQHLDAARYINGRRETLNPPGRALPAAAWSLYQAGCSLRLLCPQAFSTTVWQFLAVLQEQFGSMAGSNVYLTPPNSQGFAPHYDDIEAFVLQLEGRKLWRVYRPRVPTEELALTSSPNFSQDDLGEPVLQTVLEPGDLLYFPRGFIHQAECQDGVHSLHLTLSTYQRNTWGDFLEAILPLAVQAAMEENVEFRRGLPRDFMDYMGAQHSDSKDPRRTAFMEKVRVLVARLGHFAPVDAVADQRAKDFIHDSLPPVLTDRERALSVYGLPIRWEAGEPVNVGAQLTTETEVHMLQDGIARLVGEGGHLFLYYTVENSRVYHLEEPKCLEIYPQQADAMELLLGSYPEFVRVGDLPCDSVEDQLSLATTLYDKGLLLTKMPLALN
Description: reactions were quenched after 4 min. KDM4A inhibition was tested as described previously using a formaldehyde dehydrogenase (FDH) assay.[9] JARID1B and JARID1C inhibition was tested as described previously using reported AlphaScreen-based assays.[10] MINA531-464 and NO66116-641 were cloned into pFB-LIC-Bse, and the N-terminal His-tagged proteins were produced in Sf9 insect cells. The MINA53 peptide substrate Rpl27a […]
(Gly31 – Pro49 […]) and the NO66 peptide substrate Rpl8
(Asn205 – Thr224 […]) were synthesized by Peptide Protein
Research Ltd (Fareham, Hampshire, UK) to >95% purity. IC50 determinations were performed in 384-well polypropylene plates (Greiner Bio One, Cat Number 781096), and compound dispenses were performed using an ECHO 550 acoustic dispenser (Labcyte, Sunnyvale, CA). […]
RapidFire integrator software (Agilent). Percent conversion was calculated in Excel, and IC50 curves were generated using Prism v. […]
Assays consisted of enzyme (2 µM), inhibitor (200 µM), MnCl2 (50 µM), and SYPRO Orange (1:5000 dilution), all prepared in 50 mM HEPES, pH 7.5. […] An Opticon thermal cycler (MJ Research Inc) was used to control temperature and measure fluorescence. […]
CPMG Binding Experiments: Binding of the inhibitors to the proteins was monitored using Carr-Purcell-Meiboom-Gill (CPMG)-edited 1H spectra. […]

[1] = S9 liver microsome stability assay (Cyprotex); assay type: in vitro ADME; conditions: for microsomal CLint: S9 liver microsome assay, read-out: predicted intrinsic clearance; for clearance classification: low clearance: < 8.6 µL/min/mg protein
Description: supplemented with 80 µM Zn(II), 70 µM of inhibitor, all in 50 mM Tris-d11, pH 7.5, 10 % D2O, […]
Cell Culture and Immunoblotting
HeLa cells were cultured in DMEM media supplemented with 10 % fetal bovine serum, 4 mM L-glutamine, 100 U/mL penicillin, and 100 µg/mL streptomycin. Cells were treated with the indicated compounds, prepared in 1% DMSO, for 5 h. Following a PBS buffer rinse, cells were lysed in urea/SDS buffer supplemented with 1 mM dithiothreitol. Cell extracts were analyzed by SDS-PAGE, electroblotted onto PVDF membranes (Millipore) and probed with anti-HIF-1α antibody (clone 54, BD Transduction Laboratories) at 1:1000 dilution for 1 h at room temperature. The HRP-conjugated secondary antibody was then applied at room temperature for 1 h. Target proteins were detected with SuperSignal Chemiluminescent […]
ADMET in vitro Predictors
S9 liver microsome stability assays and MDCK-MDR1 efflux assays were carried out for CCT3 and CCT4 by Cyprotex (UK). Additional details are provided later in the Supporting […]
The solubility and metabolic stability of CCT3 and CCT4 was preliminarily evaluated using a S9 liver microsome assay (Cyprotex, UK). According to the assay, CCT3 and CCT4 had […]
respectively, and are thus classified as having low clearance (< 8.6 µL/min/mg protein).
The cell permeability of CCT3 and CCT4 were evaluated using an MDR1-MDCK in vitro […]
able to penetrate the blood-brain barrier. The permeability coefficients were determined to be

Chain of Tpa1p (P40032 whole entry): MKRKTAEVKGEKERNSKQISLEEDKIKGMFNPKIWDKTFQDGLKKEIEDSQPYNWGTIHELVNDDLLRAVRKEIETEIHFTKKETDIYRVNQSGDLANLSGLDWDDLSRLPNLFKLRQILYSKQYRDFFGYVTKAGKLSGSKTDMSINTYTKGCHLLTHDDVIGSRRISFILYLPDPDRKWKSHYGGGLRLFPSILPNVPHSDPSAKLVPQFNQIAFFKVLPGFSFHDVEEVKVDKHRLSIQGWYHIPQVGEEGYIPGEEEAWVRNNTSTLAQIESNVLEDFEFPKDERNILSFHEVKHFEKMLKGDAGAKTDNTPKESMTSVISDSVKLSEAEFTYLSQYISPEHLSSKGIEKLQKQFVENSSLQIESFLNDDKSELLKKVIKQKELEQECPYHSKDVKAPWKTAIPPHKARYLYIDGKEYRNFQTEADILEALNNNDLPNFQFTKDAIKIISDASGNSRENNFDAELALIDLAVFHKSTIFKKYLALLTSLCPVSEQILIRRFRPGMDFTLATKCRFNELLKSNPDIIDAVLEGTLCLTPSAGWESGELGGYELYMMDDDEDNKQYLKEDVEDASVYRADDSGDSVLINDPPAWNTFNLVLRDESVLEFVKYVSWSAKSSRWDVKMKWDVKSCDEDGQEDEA

Row | SMILES | inhibition of Tpa1p, in words (Tpa1p) | IC50 (NO66) | microsomal CLint [1] | clearance classification ([1]; listed as CCT4) | clearance classification ([1]; listed as CCT3)
1 | Cn1c(O)c(C(=O)CCc2cccs2)c(=O)n(C)c1=O [compound 42] | potently inhibit | > 100 µM | 7.72 µL/min/mg | only low levels of clearance | 
2 | Cn1c(O)c(C(=O)CCc2ccccc2)c(=O)n(C)c1=O [compound 26] | potently inhibit | > 100 µM | 4.76 µL/min/mg |  | only low levels of clearance
